Reference: patent publication US20210315893A1 (Galapagos NV, priority 2017, published 2021)

What was measured:
[1] = target: T1, human GPCR sphingosine 1-phosphate receptor 2 (Homo sapiens, UniProt O95136); test: S1PR2 antagonist Ca2+ flux assay; assay type: cell-based; conditions: antagonist mode, CHO-S1PR2 cells, S1P at EC80, Ca2+ fluorescence; read-out: S1P2 EC50 (nM), S1P2 antagonist EC50
T1 construct: host or cells: CHO
Method in brief: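 Antagonist mode: 15 min after compound addition, S1P (EC80) stimulates Fluo8-loaded, 1 h-starved CHO-S1PR2 cells, Ca2+ read over 3 min; a prior 3-min read checks compound agonism. EC50 from peak/baseline fluorescence ratio, normalised versus vehicle and S1P EC50 (antagonist) or EC100 (agonist).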

S1PR2 = target: T2, S1PR2 (Homo sapiens, UniProt O95136); test: S1PR2 binding assay (competition with radioactively labeled S1P, SpA); conditions: membranes from stable cell line over expressing S1PR2, SpA beads; read-out: S1P2 EC50 (nM), S1PR2 binding EC50
T2 construct: expressed in transfected cells
T2 sequence (O95136 whole entry): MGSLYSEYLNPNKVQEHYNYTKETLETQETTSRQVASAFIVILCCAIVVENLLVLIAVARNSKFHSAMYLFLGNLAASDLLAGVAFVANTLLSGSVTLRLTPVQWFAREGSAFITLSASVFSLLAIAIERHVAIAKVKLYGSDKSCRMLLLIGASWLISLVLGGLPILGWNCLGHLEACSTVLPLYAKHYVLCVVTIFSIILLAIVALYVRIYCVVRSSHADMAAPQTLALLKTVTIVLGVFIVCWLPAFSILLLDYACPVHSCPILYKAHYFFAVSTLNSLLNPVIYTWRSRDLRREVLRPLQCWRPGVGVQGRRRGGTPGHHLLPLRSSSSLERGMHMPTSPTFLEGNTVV
Method in brief: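 Scintillation proximity read-out after 2 h room-temperature incubation of compound, [3H]S1P and S1PR2-overexpressing cell membranes on WGA-coated beads. Buffer: 20 mM Tris pH 7.5, 100 mM NaCl, 10 mM MgCl2, 1 mM Na3VO4, 0.4% fatty-acid-free BSA; plates counted immediately after centrifugation.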

HFL-1 cells [2] = test: IL-8 production assay (S1P induced IL-8); assay type: cell-based; conditions: Homo sapiens, HFL1; S1P (1 μM) induced IL-8 in HFL-1 cells, starvation medium without HSA; read-out: IL8 EC50
Method in brief: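 HFL-1 fibroblasts in low-serum medium were pretreated 1 h with a 10-point 1/3 series of compound starting at 30 μM (0.3% DMSO).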

HFL-1 cells [3] = test: IL8 assay in the presence of Human Serum Albumin; conditions: HFL1, read-out: HSA IL8 EC50
Procedure: To evaluate the influence of plasma protein binding of S1P as well as compound, the S1P induced IL-8 levelswereevaluatedin presence of Human Serum Albumin (HSA, equivalent to 40% human serum).
Human Fetal Lung cells (HFL-1) are seeded in 96 well plates in growth medium (F12K+10% heat inactivated FBS+1% Pen/strep). […] On day three, compounds are added (10 point serial dilution, 30 μM highest concentration, 1/3 dilution, 0.3% DMSO final) and plates are incubated for 1 h at 37° C., 5% CO2. Subsequently S1P at 5 μM final concentration is added and plates are incubated for 16 to 24 h at 37° C., 5% COafter which the supernatant was collected. IL-8 levels in the supernatant are determined with the IL-8 ELISA of R&D systems.

T1 sequence (O95136 whole entry): as above

| SMILES | EC50 [1] [nM] | EC50 (S1PR2) [nM] | EC50 (HFL-1 cells [2]) [nM] | EC50 (HFL-1 cells [3]) [nM] |
| --- | --- | --- | --- | --- |
| CC1(COc2cc3[nH]c(Cc4nn(CC(=O)N5CCOCC5)c(=O)c5ccccc45)nc3cc2Cl)CC1 [Compound 163, 4-[[5-chloro-6-[(1-methylcyclopropyl)methoxy]-1H-benzimidazol-2-yl]methyl]-2-(2-morpholino-2-oxo-ethyl)phthalazin-1-one] | 11.6 | 109 | 12.6 | 107 |
| O=c1c2ccccc2c(Cn2cc3cc(OCC4CC4)c(Cl)cc3n2)nn1C1CNC1 [compound 2, 2-(azetidin-3-yl)-4-[[6-chloro-5-(cyclopropyl-methoxy)indazol-2-yl]methyl]-phthalazin-1-one] | 81.6 | 75.7 | 38.8 | 166 |
| CS(=O)(=O)C1CCN(C(=O)Cn2nc(Cc3nc4cc(OCC(F)F)c(C#N)cc4[nH]3)c3ccccc3c2=O)C1 (stereo not drawn) [Compound 221, 6-(2,2-difluoroethoxy)-2-[[3-[2-(3-methylsulfonylpyrrolidin-1-yl)-2-oxo-ethyl]-4-oxo-phthalazin-1-yl]methyl]-3H-benzimidazole-5-carbonitrile] | 45.8 | 365 | 127 | 387 |
| N#CC1(COc2cc3nc(Cc4nn(CC(=O)O)c(=O)c5ccccc45)[nH]c3cc2Cl)CC1 [Compound 133, 2-[4-[[5-chloro-6-[(1-cyanocyclopropyl)methoxy]-1H-benzimidazol-2-yl]methyl]-1-oxo-phthalazin-2-yl]acetic acid] | 14.8 | 263 | 33.3 | 267 |
| O=C(O)Cc1nn(Cc2cn3cc(OCC4CC4)c(Cl)cc3n2)c2c(c1=O)CCCC2 [Compound 105, 2-[1-[[7-chloro-6-(cyclopropylmethoxy)imidazo[1,2-a]pyridin-2-yl]methyl]-4-oxo-5,6,7,8-tetrahydrocinnolin-3-yl]acetic acid] | 3.02 | 35.3 | 10.6 | 110 |
| COc1ccc2c(Cc3nc4cc(Cl)c(OCC(F)F)cc4[nH]3)nn(CC(=O)N3CCOCC3)c(=O)c2c1 [Compound 31, 4-[[5-chloro-6-(2,2-difluoroethoxy)-1H-benzimidazol-2-yl]methyl]-7-methoxy-2-(2-morpholino-2-oxo-ethyl)phthalazin-1-one] | 9.11 | 93.2 | 11 | 72.6 |
| O=C(Cn1nc(Cc2nc3cc(Cl)c(OCC(F)F)cc3[nH]2)c2ccc(N3CCOCC3)cc2c1=O)N1CCOCC1 [Compound 33, 4-[[5-chloro-6-(2,2-difluoroethoxy)-1H-benzimidazol-2-yl]methyl]-7-morpholino-2-(2-morpholino-2-oxo-ethyl)phthalazin-1-one] | 86.5 | 378 | 15.6 | 129 |
| CCC(C(=O)O)c1nn(Cc2cn3cc(OCC4CC4)c(C(F)(F)F)cc3n2)c2ccccc2c1=O (stereo not drawn) [Compound 103, 2-[1-[[6-(cyclopropylmethoxy)-7-(trifluoromethyl)imidazo[1,2-a]pyridin-2-yl]methyl]-4-oxo-cinnolin-3-yl]butanoic acid] | 4.59 | 223 | 18.9 | 108 |
| N#Cc1ccc2c(Cc3nc4cc(Cl)c(OCC(F)F)cc4[nH]3)nn(CC(=O)N3CCOCC3)c(=O)c2c1 [Compound 40, 1-[[5-chloro-6-(2,2-difluoroethoxy)-1H-benzimidazol-2-yl]methyl]-3-(2-morpholino-2-oxo-ethyl)-4-oxo-phthalazine-6-carbonitrile] | 86.4 | 261 | 145 | 292 |
| CCOc1cc2nc(Cc3nn(CC(=O)N4CCOCC4)c(=O)c4ccccc34)[nH]c2cc1F [Compound 157, 4-[(5-ethoxy-6-fluoro-1H-benzimidazol-2-yl)methyl]-2-(2-morpholino-2-oxo-ethyl)phthalazin-1-one] | 106 | 618 | 780 | 1220 |
| O=c1c2ccccc2c(Cc2nc3cc(Cl)c(OC(F)(F)F)cc3[nH]2)nn1C1CCNCC1 [Compound 62, 4-[[6-chloro-5-(trifluoromethoxy)-1H-benzimidazol-2-yl]methyl]-2-(4-piperidyl)phthalazin-1-one] | 968 | 453 | 349 | 6430 |
| O=C(O)Cc1nn(Cc2nc3cc(OCC(F)F)c(Cl)cc3[nH]2)c2ccccc2c1=O [Compound 78, {1-[6-Chloro-5-(2,2-difluoro-ethoxy)-1H-benzoimidazol-2-ylmethyl]-4-oxo-1,4-dihydro-cinnolin-3-yl}-acetic acid] | 6.16 | 55.9 | 4.65 | 41.5 |

Next, values leading:

| EC50 [1] [nM] | EC50 (S1PR2) [nM] | EC50 (HFL-1 cells [2]) [nM] | EC50 (HFL-1 cells [3]) [nM] | SMILES |
| --- | --- | --- | --- | --- |
| 25.2 | 94.3 | 23.8 | 82.3 | N#Cc1cc2[nH]c(Cc3nn(CC(=O)NC4CCCOC4)c(=O)c4ccccc34)nc2cc1OCC(F)F (stereo not drawn) [Compound 184, 2-[4-[[6-cyano-5-(2,2-difluoroethoxy)-1H-benzimidazol-2-yl)methyl]-1-oxo-phthalazin-2-yl]-N-tetrahydropyran-3-yl-acetamide] |
| 41.9 | 268 | 186 | 453 | N#Cc1cc2nc(Cc3nn(CC(=O)N(CCO)CC(F)F)c(=O)c4ccccc34)[nH]c2cc1OCC(F)F [Compound 194, 2-[4-[[5-cyano-6-(2,2-difluoroethoxy)-1H-benzimidazol-2-yl]methyl]-1-oxo-phthalazin-2-yl]-N-(2,2-difluoroethyl)-N-(2-hydroxyethyl)acetamide] |
| 32.5 | 80.3 | 139 | 634 | CN(CC(F)F)C(=O)Cn1nc(Cc2nc3cc(C#N)c(OCC(F)F)cc3[nH]2)c2ccccc2c1=O [Compound 197, 2-[4-[[5-cyano-6-(2,2-difluoroethoxy)-1H-benzimidazol-2-yl]methyl]-1-oxo-phthalazin-2-yl]-N-(2,2-difluoroethyl)-N-methyl-acetamide] |
| 15.7 | 83.1 | 27.2 | 445 | CN(CC1CC1)C(=O)Cn1nc(Cc2nc3cc(C#N)c(OCC(F)F)cc3[nH]2)c2ccccc2c1=O [Compound 196, 2-[4-[[5-cyano-6-(2,2-difluoroethoxy)-1H-benzimidazol-2-yl]methyl]-1-oxo-phthalazin-2-yl]-N-(cyclopropylmethyl)-N-methyl-acetamide] |
| 76 | 307 | 196 | 430 | COCCN(C)C(=O)Cn1nc(Cc2nc3cc(OCC(F)F)c(C#N)cc3[nH]2)c2ccccc2c1=O [Compound 183, 2-[4-[[6-cyano-5-(2,2-difluoroethoxy)-1H-benzimidazol-2-yl]methyl]-1-oxo-phthalazin-2-yl]-N-(2-methoxyethyl)-N-methyl-acetamide] |
| 21.1 | 93.9 | 28.3 | 67 | CN(CC1CCCO1)C(=O)Cn1nc(Cc2nc3cc(OCC(F)F)c(C#N)cc3[nH]2)c2ccccc2c1=O (stereo not drawn) [Compound 180, 2-[4-[[6-cyano-5-(2,2-difluoroethoxy)-1H-benzimidazol-2-yl)methyl]-1-oxo-phthalazin-2-yl]-N-methyl-N-(THF-2-ylmethyl)acetamide] |
| 95.8 | 297 | 544 | 906 | N#CCCN(C(=O)Cn1nc(Cc2nc3cc(OCC(F)F)c(C#N)cc3[nH]2)c2ccccc2c1=O)C1CC1 [Compound 181, 2-[4-[[6-cyano-5-(2,2-difluoroethoxy)-1H-benzimidazol-2-yl]methyl]-1-oxo-phthalazin-2-yl]-N-(2-cyanoethyl)-N-cyclopropyl-acetamide] |
| 63.4 | 380 | 258 | 663 | N#Cc1cc2nc(Cc3nn(CC(=O)N4CCC(F)(F)CC4)c(=O)c4ccccc34)[nH]c2cc1OCC(F)F [Compound 188, 6-(2,2-difluoroethoxy)-2-[[3-[2-(4,4-difluoro-1-piperidyl)-2-oxo-ethyl]-4-oxo-phthalazin-1-yl]methyl]-1H-benzimidazole-5-carbonitrile] |
| 18.2 | 117 | 49.2 | 159 | N#Cc1cc2[nH]c(Cc3nn(CC(=O)N4CCC5(C4)CC5(F)F)c(=O)c4ccccc34)nc2cc1OCC(F)F (stereo not drawn) [Compound 235, 2-[[3-[2-(2,2-difluoro-5-azaspiro[2.4]heptan-5-yl)-2-oxo-ethyl]-4-oxo-phthalazin-1-yl]methyl]-6-(2,2-difluoroethoxy)-3H-benzimidazole-5-carbonitrile] |
